# According to US12643899B2, “Antiviral agents, uses thereof and methods for their preparation” (The University of British Columbia, priority 2020, dated 2026):
# Experiments:
# ZIKV = experiment: Secreted NS1 (sNS1) ELISA, ZIKV-infected A549 cells; format: cell-based, Zika virus; conditions: Zika virus, 24 h pre-treatment, MOI 1.0, 2 d
# Protocol: Error bars represent SD among 2 biological replicates.
# Cultured A549 cells were treated with various concentrations of CA or PF-429242 for 24 h before being washed with PBS and inoculated with ZIKV (ZIKV strain VR 1843, Puerto Rico, 2015; ATCC) at MOI 1.0 for 1 h. Following the removal of the inoculum, cells were incubated in fresh media for 2 d before the supernatant was collected, clarified, and secreted NS1 protein abundance was measured by an ELISA kit (BioFront Technologies) according to the manufacturer's instructions. Curve fitting was performed in Igor Pro (WaveMetrics) using a hyperbolic fit algorithm (FIG. 4; upper and middle plots) and IC50 and TI values obtained. IC50 and TI values were also obtained for CA via plaque assay (PFU; FIG. 4, lower plot). FIG. 4 (upper plot) is an ED50 curve for the PF inhibitor based on the detection of secreted Non-Structural protein 1 (sNS1), secreted viral biomarker. sNS1 was detected using an Elisa test (commercially available). FIG. 4 (middle plot) is an ED50 curve for CA based on the detection of secreted Non-Structural protein 1 (sNS1), secreted viral biomarker. sNS1 was detected using an Elisa test (commercially available).
# DENV-2 = DENV-2 intracellular dsRNA (Cellomics) in A549 cells; format: cell-based, dengue virus
# Protocol: Error bars represent SD among 3 biological replicates. Cultured A549 cells were treated with the indicated concentrations of CA (1=Mock, 2=0 M, 3=1 μM, 4=5 M, 5=10 M, 6=20 µM) or PF-429242 (7=15 M) for 1 h before being washed with PBS and infected with DENV-2, DENV-3, or DENV-4 at MOI 1.0 for 48 h. Cells were labeled for viral dsRNA with […] then imaged and quantified using the Cellomics ArrayScan™ VTI High Content Screening system.
# Viruses. ZIKV: ZIKV strain PRVABC59 (Puerto Rico/2015) (ATCC #VR-1843) was used in these studies, specifically three separate stocks generated in Vero E6 cells with titres of 1.35×10^8 pfu/mL, 1.0×10^7 pfu/mL, and 2.9×10^6 pfu/mL respectively. DENV strains: DENV-2 strain NGC, DENV-3 strain H-87, and DENV-4 strain H-241 were kindly provided by National Microbiology Laboratory, Winnipeg, MB, Canada.
# A549 cells were seeded onto Corning tissue culture treated 96 well plates and incubated at 37 degrees Celsius and 5% CO2 for 24 h. CA was diluted in MEM complete media to concentrations of 1 μM, 5 μM, 10 μM, 20 μM, including a 0 μM condition. Diluted CA was added to each well and cells were incubated at 37 degrees Celsius and 5% CO2 for 1 h. After 1 h, cells were washed once with PBS to remove CA and were then infected with DENV-2, -3 or -4 at an MOI of 1. […] Labeled 96 well plates were imaged and quantified using the Cellomics ArrayScan VTI. […]
structure (smiles),measurement,setting,value
"COc1c2n(c3ccccc13)[C@]1(O)C(=O)N(C)C(=O)[C@]1(O)c1c-2[nH]c2ccc(Cl)cc12 [CA, (11S,15R)-7-chloro-11,15-dihydroxy-23-methoxy-13-methyl-3,13,16-triazahexacyclo[14.7.0.0^2,10.0^4,9.0^11,15.0^17,22]tricosa-1(23),2(10),4(9),5,7,17,19,21-octaene-12,14-dione]",IC50,ZIKV,0.08 µM
same,activity against Dengue virus 2 in vitro,"DENV-2; 1-20 μM, FIG. 8 upper plots",good activity
same,IC50,"DENV-2; Dengue virus, DENV2, DENV-2, intracellular dsRNA (Cellomics)",2.3 µM
